Reference: patent US6475491B1, “Treatment of HIV and other viral infections using combinatorial therapy” (priority 1995, dated 2002)
Values after ≈ are worked out from the molar mass of the structure shown. “Also recorded” adds a separate entry of the source. Like-named read-outs stand apart in the source and are kept apart here.

Assays:
[1] = Cell proliferation and toxicity assay; type: cell-based; conditions: human, CEM cells
Protocol: (§1) Cell proliferation and toxicity assay: Approximately 3.8×10^5 CEM cells for each peptide concentration were incubated for 3 days at 37° C. in T25 flasks. […] The concentrations of each peptide used were 0, 2.5, 10, and 40 μg/ml. Cell counts were taken at incubation times of 0, 24, 48, and 72 hours.
(§2) Additionally, cells were incubated in the absence of either peptide.

[2] = test system: CEM cells; assay: Cell proliferation and toxicity assay; type: cell-based
Protocol: as §1, §2

[3] = Toxicity in in vitro studies and in animals
Source text: The present invention provides the first reported use of such peptides in combination with another antiviral or any other therapeutic agent.

[4] = test system: HIV-1RF; assay: Cell fusion assay: syncytia formation, Molt4 cells with chronically infected CEM cells; type: cell-based; conditions: HIV-1RF infected CEM cells
Source text: (§3) The results of several such experiments are presented herein.

[5] = test system: HIV-1MN; assay: as above; type: cell-based; conditions: HIV-1MN infected CEM cells
Source text: as §3

[6] = test system: HIV-1SF2; assay: as above; type: cell-based; conditions: HIV-1SF2 infected CEM cells
Source text: as §3

[7] = test system: HIV-1LA1; assay: Cell fusion assay: syncytia formation, uninfected Molt4 cells co-cultivated with chronically HIV-1 infected CEM cells; type: cell-based
Protocol: A cell fusion assay may be utilized to test the peptides' ability to inhibit HIV-induced syncytia formation in vitro. Such an assay may comprise culturing uninfected CD-4^+ cells (such as Molt or CEM cells, for example) in the presence of chronically HIV-infected cells and a therapeutic agent to be assayed. For each combinational therapy, a range of concentrations may be tested. […] Standard conditions for culturing, well known to those of ordinary skill in the art, are used. After incubation for an appropriate period (24 hours at 37° C., for example) the culture is examined microscopically for the presence of multinucleated giant cells, which are indicative of cell fusion and syncytia formation.
Approximately 7×10^4 Molt cells were incubated with 1×10^4CEM cells chronically infected with the HIV-1LA1 virus in 96-well plates (one-half area cluster plates; Costar, Cambridge, Mass.) in a final volume of 100 μl culture medium as previously described (Matthews, T. J. et al., 1987, Proc. Natl. Acad. Sci. USA 84: 5424-5428). Peptide inhibitors were added in a volume of 10 μl and the cell mixtures were incubated for 24 hr. at 37° C. At that time, multinucleated giant cells were estimated by microscopic examination at a 40×magnification which allowed visualization of the entire well in a single field.
The initial screen for antiviral activity assayed peptides' ability to block syncytium formation induced by overnight co-cultivation of uninfected Molt4 cells with chronically HIV-1 infected CEM cells. […] For these experiments, CEM cells chronically infected with either HIV-1LA1, HIV-1MN, HIV-1RF, or HIV-1SF2 virus were cocultivated overnight with uninfected Molt 4 cells.

[8] = test system: HIV-2; assay: Cell fusion assay: HIV-2 mediated syncytia formation; type: cell-based; conditions: comparison HIV-1 / HIV-2, same cell type
[9] = test system: HIV-1LA1
Protocol: (§4) The resulting reverse transcriptase (RT) activity in counts per minute was determined using the assay described, below, in Section 6.1.5. See, Reed, L. J. et al., 1938, Am. J. Hyg. 27: 493-497 for an explanation of TCID50 calculations.
(§5) The micro-reverse transcriptase (RT) assay was adapted from Goff et al. (Goff, S. et al., 1981, J. Virol. 38:239-248) and Willey et al. (Willey, R. et al., 1988, J. Virol. 62:139-147). Supernatants from virus/cell cultures are adjusted to 1% Triton-X100. A 10 μl sample of supernatant was added to 50 μl of RT cocktail in a 96-well U-bottom microtitre plate and the samples incubated at 37° C. for 90 min. The RT cocktail contained 75 mM KCl, 2 mM dithiothreitol, 5 mM MgCl2, 5 μg/ml poly A (Pharmacia, cat. No. 27-4110-01), 0.25 units/ml oligo dT (Pharmacia, cat. No. 27-7858-01), 0.05% NP40, 50 mM Tris-HCl, pH 7.8, 0.5 μM non-radioactive dTTP, and 10 μCi/ml ^32P-dTTP (Amersham, cat. No. PB.10167).
After the incubation period, 40 μl of reaction mixture was applied to a Schleicher and Schuell (S+S) NA45 membrane (or DE81 paper) saturated in 2×SSC buffer (0.3 M NaCl and […] sodium citrate) held in a S+S Minifold over one sheet of GB003 (S+S) filter paper, with partial vacuum applied. Each well of the minifold was washed four times with 200 μl 2×SSC, under full vacuum. The membrane was removed from the minifold and washed 2 more times in a pyrex dish with an excess of 2×SSC. Finally, the membrane was drained on absorbent paper, placed on Whatman #3 paper, covered with Saran wrap, and exposed to film overnight at −70° C.
After 7 days of culture, cell-free supernatant was tested for the presence of RT activity as a measure of successful infection.

[10] = test system: HIV-2NIHZ; assay: Cell free virus infection assay, CEM cells, reverse transcriptase readout; type: cell-based; conditions: 25 TCID50 HIV-2NIHZ, 7 days
Protocol: as §4, §5
After the incubation period, 40 μl of reaction mixture was applied to a Schleicher and Schuell (S+S) NA45 membrane (or DE81 paper) saturated in 2×SSC buffer (0.3 M NaCl and […] sodium citrate) held in a S+S Minifold over one sheet of GB003 (S+S) filter paper, with partial vacuum applied. Each well of the minifold was washed four times with 200 μl 2×SSC, under full vacuum. […]

[11] = test system: HIV-1IIIb; assay: Combination indices from in vitro HIV-1IIIb/CEM co-culture (Chou and Talalay)
Protocol: (§6) The results of these assays are analyzed using Chou and Talalay's combination method (Chou and Talalay, 1984, Adv. Enzyme Regul. 22:27-55) and ‘Dose-Effect Analysis with Microcomputers’ software (Chou and Chou, 1987, software and manual. p19-64. Elsevier Biosoft, Cambridge, UK) in order to obtain a Combination Index. Combination Index values <1 indicates synergy, values>1 indicate antagonism and values equal to 1 indicate additive effects.
(§7) For this assay, 3×10^4 uninfected Molt4 cells are cocultivated with 3×10^3 H9/ LA1 or CEM/LA1 chronically infected cells per well in 24 well plates. Inhibitors are added on day 0, and the assay plates are re-fed on days 1 and 3 with growth medium containing the inhibitors. The assay is harvested on day 5. Antiviral activity is measured by several parameters: Western blot analysis of pelleted cells from treated cultures, RT levels, and p24 antigen levels in the supernatant.
(§8) The combined drug effects are calculated by the multiple drug analysis method of Chou and Talalay (Chou and Talalay, 1984, Adv. Enzyme Regul. 22:27-55) and ‘Dose-Effect Analysis with Microcomputers’ software (Chou and Chou, 1987, software and manual. p19-64. Elsevier Biosoft, Cambridge, UK) using the equation: [formula]
(§9) where CI is the combination index, (Dx)1 is the dose of drug 1 required to produce x percent effect alone, (D)1 is the dose of drug 1 required to produce the same x percent effect in combination with (D)2. The values of (Dx)2 and (D)2 are similarly derived from drug 2. The value of α is determined from the plot of the dose effect curve using the median effect equation:
(§10) where fa is the fraction affected by dose D, fu is the uninfected fraction, Dm is the dose required for 50% effect and m is the slope of the dose-effect curve. […] If the agents are mutually exclusive α is 0. and if they are mutually nonexclusive, α is 1. […] CI values of <1 indicate synergy, values>1 indicate antagonism and values equal to 1 indicate additive effects.

[12] = test system: HIV-1IIIb
Protocol: as §6, §7, §8, §9, §10

[13] = test system: HIV-1LA1; conditions: control peptides; cited from earlier work
[14] = test system: HIV-1/IIIb; type: cell-based; conditions: 5 h
Source text: Anti-HIV assays: The antiviral assays performed were as those described, above, in Section 6.1. Assays utilized HIV-1/IIIb and/or HIV-2 NIHZ isolates. Purified peptides were used, unless otherwise noted in FIGS. 5A-5L.

[15] = test system: HIV-1; conditions: cited from earlier work
[16] = test system: HIV-1; conditions: cited from earlier work; remark: listed apart in the source

Compound: enfuvirtide
- viability at 0 h, 2.5 µg/mL ([1]; 2.5 μg/ml, 0 hours): 98%
- viability at 24 h, 2.5 µg/mL ([1]; 2.5 μg/ml, 24 hours): 93%
- viability at 48 h, 2.5 µg/mL ([1]; 2.5 μg/ml, 48 hours): 96%
- viability at 72 h, 2.5 µg/mL ([1]; 2.5 μg/ml, 72 hours): 96%
- viability at 0 h, 10 µg/mL ([1]; 10 μg/ml, 0 hours): 98%
- viability at 24 h, 10 µg/mL ([1]; 10 μg/ml, 24 hours): 97%
- viability at 48 h, 10 µg/mL ([1]; 10 μg/ml, 48 hours): 98%
- viability at 72 h, 10 µg/mL ([1]; 10 μg/ml, 72 hours): 98%
- viability at 0 h, 40 µg/mL ([1]; 40 μg/ml, 0 hours): 98%
- viability at 24 h, 40 µg/mL ([1]; 40 μg/ml, 24 hours): 97%
- viability at 48 h, 40 µg/mL ([1]; 40 μg/ml, 48 hours): 95%
- viability at 72 h, 40 µg/mL ([1]; 40 μg/ml, 72 hours): 97%
- non-cytotoxic peptide concentration relative to HIV inhibitory dose [2]: greater than 3 log
- concentration non-cytotoxic to cells in culture (highest tested) ([2]; CEM cells, 3 days): > 40000 ng/mL
- cytotoxic effects on cells in culture ([2]; CEM cells, up to 40 μg/ml, 3 days): no cytotoxic effects
- toxicity in in vitro studies and in animals [3]: non-toxic

Compound: Enfuvirtide
- concentration affording complete protection against syncytium formation (lowest concentration used) [4]: ≤ 100 ng/mL
- concentration affording complete protection against syncytium formation (lowest concentration used) [5]: ≤ 100 ng/mL
- concentration affording complete protection against syncytium formation (lowest concentration used) [6]: ≤ 100 ng/mL
- selectivity as inhibitor of HIV-1-mediated over HIV-2 mediated cell fusion [7]: 4 log
- concentration affording complete protection against syncytium formation (lowest concentration tested) ([7]; HIVLA1 infected CEM cells, overnight co-cultivation): ≤ 12.5 ng/mL
- lowest effective inhibitory concentration completely blocking virus induced syncytia formation ([7]; Molt4 + chronically infected CEM cells, 24 hr): 1 to 10 ng/mL
- peptide concentration blocking HIV-1-mediated syncytia formation ([7]; comparison HIV-1 / HIV-2): below 1 ng/ml
- concentration failing to block HIV-2 mediated syncytia formation [8]: > 10 µg/mL
- IC50, inhibition of HIV-1 infection ([9]; 62 TCID50 HIV-1LA1, CEM cells, 7 days): about 3 ng/ml
- IC50, inhibition of RT production from infected cells ([9]; 247 TCID50 HIV-1LA1, CEM cells, 7 days): 0.09 µg/mL
- potency as HIV-1 inhibitor relative to HIV-2 inhibitor ([9]; HIV-1LA1 vs HIV-2NIHZ, cell-free infection): two logs more potent
- IC50 for HIV-2NIHZ [10]: much higher IC50
- Dm T20 (dose required for 50% effect) ([11]; experiment T20:3TC 1:1.5): 158.87 ng/mL
- Dm T20 (dose required for 50% effect) ([11]; experiment T20:3TC 2:1): 298.50 ng/mL
- Dm T20 (dose required for 50% effect) ([11]; experiment T20:Indinavir 10:1): 298.50 ng/mL
- Dm T20 (dose required for 50% effect) ([11]; experiment T20:Nelfinavir 1.33:1): 172.02 ng/mL
- Dm T20 (dose required for 50% effect) ([11]; experiment T20:Nelfinavir 5:1): 298.50 ng/mL
- Dm T20 (dose required for 50% effect) ([11]; experiment T:20:AZT 1:10): 298.50 ng/mL

Compound: Cc1cn([C@H]2C[C@H](N=[N+]=[N-])[C@@H](CO)O2)c(=O)[nH]c1=O [AZT, 3′-azido-2′,3′-dideoxythymidine]
- EC50 [12]: 13.1 µg/mL (≈ 49.2 µM)

Compound: CC(C)(C)NC(=O)[C@@H]1CN(Cc2cccnc2)CCN1C[C@@H](O)C[C@@H](Cc1ccccc1)C(=O)N[C@H]1c2ccccc2C[C@H]1O [Indinavir]
- EC50 [12]: 0.0276 µg/mL (≈ 0.045 µM)

Compound: Ac-LQARILAVERYLKDQQQ-NH2 (N-terminus and C-terminus assumed) [DP-116]
- activity previously shown in the cell-free virus infection assay [13]: inactive; also recorded: ineffective as a HIV inhibitor; also recorded: negative for inhibition of HIV-1 infection

Compound: DP-180: control peptide incorporating the amino acid residues of DP-178 in a scrambled sequence (SSESFTLLEQWNNWKLQLAEQWLEQINEKHYLEDIS; Human immunodeficiency virus) [reference compound]
- concentration with no evidence of anti-fusogenic activity ([7]; high concentration tested): > 40 µg/mL

Compound: H-YTSLIHSLIEESQNQQEK-OH [Peptide T-4]
- IC50, antiviral activity [14]: > 400 µg/mL

Compound: Ac-NNLLRAIEAQQHLLQLTVWGIKQLQARILAVERYLKDQ-NH2 [DP-107]
- toxicity in in vitro studies and in animals [3]: non-toxic

Compound: Nc1ccn([C@@H]2CS[C@H](CO)O2)c(=O)n1 [Peptide 3TC, reference compound]
- EC50 [12]: 0.0748 µg/mL (≈ 0.326 µM)
- Dm Drug #2 (dose required for 50% effect) ([11]; experiments T20:3TC 2:1, T20:Nelfinavir 5:1): 63.73 ng/mL

Compound: Cc1c(O)cccc1C(=O)N[C@@H](CSc1ccccc1)[C@H](O)CN1C[C@H]2CCCC[C@H]2C[C@H]1C(=O)NC(C)(C)C [Nelfinavir, reference compound]
- EC50 [12]: 0.00927 µg/mL (≈ 0.0163 µM)
- EC50 ([11]; Human immunodeficiency virus 1, read-out: Dm Drug #2 (dose required for 50% effect)): 0.0609 µg/mL

Compound: CC(C)c1nc(CN(C)C(=O)N[C@H](C(=O)N[C@@H](Cc2ccccc2)C[C@H](O)[C@H](Cc2ccccc2)NC(=O)OCc2cncs2)C(C)C)cs1 [ABT-538]
- CD4 lymphocyte counts ([15]; AIDS patients): rise substantially
- plasma HIV-1 levels ([15]; AIDS patients): decrease exponentially
- pharmacokinetic and safety profiles in vivo ([15]; human, in vivo): favorable pharmokinetic and safety profiles
- antiviral activity in vitro [16]: potent antiviral activity
